Legend:
IKZF3 protein = IKZF3 protein (Homo sapiens (Human), UniProt Q96SW2+Q9UKT9); assay: Western-blot assay of substrate protein degradation in hPBMC, IKZF3; type: cell-based; conditions: for residual substrate protein level, IKZF3: hPBMC cells, compound 500 nM, 24 hours, Western blot
Protocol: (§1) After treating the cells with the compounds for 24 hours, the cells were collected and lysed using RIPA protein lysate containing phosphatase inhibitors. The lysate was then placed on ice for 30-60 minutes and centrifuged. The supernatant was aspirated as the extracted total cell protein. The protein concentration of the supernatant was determined using the conventional BCA (Bicinchoninic Acid) assay. The supernatant was then mixed with 4×SDS sample loading buffer, denatured at 95° C. for 5 minutes, and then subjected to SDS-PAGE electrophoresis on a polyacrylamide gel, followed by transfer to a nitrocellulose membrane (NC membrane). The membrane was blocked with blocking buffer at room temperature for 1-2 hours, and then antibody incubation and detection were carried out according to the antibody instructions provided by Cell Signaling Technology.
(§2) Half-Maximal Degradation Concentration value (the drug concentration required for degrading proteins by 50%, abbreviated as DC50) reads method: comparing the gray values of the Western blotting bands for the drug treatment with the gray values of the Western blotting band for the DMSO control, and reading the drug concentration range corresponding to the gray value of the Western blotting bands for the drug treatment which is equal to half of the gray value of the Western blotting band for the DMSO control.
(§3) DC50 value could also be calculated as follows: using software ImageJ to quantify the gray values of the Western blotting bands for the drug treatment, fitting the relationship curve between drug concentrations and gray values, and from the fitted curve, calculating the drug concentration corresponding to half of the gray value of the Western blotting band for the DMSO control.

IKZF1 protein = IKZF1 protein (Homo sapiens (Human), UniProt Q13422+Q96SW2); assay: Western-blot assay of substrate protein degradation in hPBMC, IKZF1; type: cell-based; conditions: for residual substrate protein level, IKZF1: hPBMC cells, compound 500 nM, 24 hours, Western blot
Protocol: as §1, §2, §3

[1] = target: human Cereblon WT GST-tagged protein (Homo sapiens (Human), UniProt Q96SW2); assay: CRBN-binding affinity, HTRF (CEREBLON BINDING kit)
Summary of the method: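 GST-tagged human WT Cereblon incubated with compound, then Thalidomide-Re tracer and anti-GST Eu antibody added. Displacement read by HTRF, reported as CRBN binding inhibition rate against blank control wells without protein.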

GSPT1 protein = GSPT1 protein (Homo sapiens (Human), UniProt P15170+Q96SW2); assay: Western-blot assay of substrate protein degradation in hPBMC, GSPT1; type: cell-based; conditions: for residual substrate protein level, GSPT1: hPBMC cells, compound 500 nM, 24 hours, Western blot
Protocol: as §1, §2, §3

[2] = hPBMC, 24 h, serially diluted 0.03-1000 nM

Sequence of GSPT1 protein (P15170 whole entry): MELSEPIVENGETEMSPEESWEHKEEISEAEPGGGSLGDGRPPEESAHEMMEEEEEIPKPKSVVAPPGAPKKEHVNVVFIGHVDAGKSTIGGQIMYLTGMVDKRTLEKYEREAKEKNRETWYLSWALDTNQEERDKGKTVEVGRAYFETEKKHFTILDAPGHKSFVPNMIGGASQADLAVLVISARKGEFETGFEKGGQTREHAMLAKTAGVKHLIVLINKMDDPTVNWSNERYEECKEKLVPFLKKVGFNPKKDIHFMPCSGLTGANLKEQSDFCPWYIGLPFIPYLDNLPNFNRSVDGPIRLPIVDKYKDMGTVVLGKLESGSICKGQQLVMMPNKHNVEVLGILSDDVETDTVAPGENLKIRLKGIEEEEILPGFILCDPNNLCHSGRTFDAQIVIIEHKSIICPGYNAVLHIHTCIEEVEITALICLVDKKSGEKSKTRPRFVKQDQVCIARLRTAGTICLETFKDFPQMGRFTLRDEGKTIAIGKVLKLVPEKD
Sequence of GSPT1 protein (Q96SW2 whole entry): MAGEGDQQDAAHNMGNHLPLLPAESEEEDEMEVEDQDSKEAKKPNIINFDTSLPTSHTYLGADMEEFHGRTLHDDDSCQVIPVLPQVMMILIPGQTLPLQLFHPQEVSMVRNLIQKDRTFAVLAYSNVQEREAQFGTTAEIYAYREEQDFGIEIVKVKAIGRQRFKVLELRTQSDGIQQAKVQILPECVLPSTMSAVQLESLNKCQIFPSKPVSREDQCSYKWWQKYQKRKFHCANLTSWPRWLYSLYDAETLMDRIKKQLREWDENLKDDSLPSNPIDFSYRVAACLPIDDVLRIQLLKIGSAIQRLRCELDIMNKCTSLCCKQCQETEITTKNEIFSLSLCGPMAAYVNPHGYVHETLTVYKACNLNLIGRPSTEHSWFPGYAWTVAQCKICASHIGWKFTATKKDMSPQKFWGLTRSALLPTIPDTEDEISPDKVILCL
Sequence of GSPT1 protein (Q16531 whole entry partner): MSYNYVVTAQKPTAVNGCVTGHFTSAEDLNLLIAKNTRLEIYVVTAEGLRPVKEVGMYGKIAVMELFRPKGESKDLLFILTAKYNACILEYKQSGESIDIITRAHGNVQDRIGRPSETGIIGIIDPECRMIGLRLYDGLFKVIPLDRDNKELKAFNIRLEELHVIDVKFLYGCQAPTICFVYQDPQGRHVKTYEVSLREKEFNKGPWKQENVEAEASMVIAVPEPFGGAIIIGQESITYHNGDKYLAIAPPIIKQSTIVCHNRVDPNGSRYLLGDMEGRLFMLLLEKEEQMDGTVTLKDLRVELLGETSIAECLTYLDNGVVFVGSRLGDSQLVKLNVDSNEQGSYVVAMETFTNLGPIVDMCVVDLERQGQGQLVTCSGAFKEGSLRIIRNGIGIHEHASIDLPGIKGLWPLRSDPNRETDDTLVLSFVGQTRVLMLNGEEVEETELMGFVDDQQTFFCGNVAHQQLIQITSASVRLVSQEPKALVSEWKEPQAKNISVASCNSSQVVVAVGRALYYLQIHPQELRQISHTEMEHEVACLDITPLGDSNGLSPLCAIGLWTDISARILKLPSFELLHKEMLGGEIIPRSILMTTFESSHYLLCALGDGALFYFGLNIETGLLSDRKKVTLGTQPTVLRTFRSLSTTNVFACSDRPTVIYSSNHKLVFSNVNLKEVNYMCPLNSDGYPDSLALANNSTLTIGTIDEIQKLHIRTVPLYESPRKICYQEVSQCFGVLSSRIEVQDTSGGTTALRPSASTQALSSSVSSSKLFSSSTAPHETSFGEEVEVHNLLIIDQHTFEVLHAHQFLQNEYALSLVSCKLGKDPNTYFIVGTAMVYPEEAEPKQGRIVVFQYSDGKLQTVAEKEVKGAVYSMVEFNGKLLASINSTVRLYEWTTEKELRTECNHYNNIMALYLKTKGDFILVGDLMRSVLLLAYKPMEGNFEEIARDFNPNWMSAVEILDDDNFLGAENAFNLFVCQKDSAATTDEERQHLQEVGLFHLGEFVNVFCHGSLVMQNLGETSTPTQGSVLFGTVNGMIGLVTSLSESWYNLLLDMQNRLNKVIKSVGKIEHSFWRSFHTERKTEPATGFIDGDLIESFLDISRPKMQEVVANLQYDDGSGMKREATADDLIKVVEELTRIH
Sequence of IKZF3 protein (Q9UKT9 whole entry): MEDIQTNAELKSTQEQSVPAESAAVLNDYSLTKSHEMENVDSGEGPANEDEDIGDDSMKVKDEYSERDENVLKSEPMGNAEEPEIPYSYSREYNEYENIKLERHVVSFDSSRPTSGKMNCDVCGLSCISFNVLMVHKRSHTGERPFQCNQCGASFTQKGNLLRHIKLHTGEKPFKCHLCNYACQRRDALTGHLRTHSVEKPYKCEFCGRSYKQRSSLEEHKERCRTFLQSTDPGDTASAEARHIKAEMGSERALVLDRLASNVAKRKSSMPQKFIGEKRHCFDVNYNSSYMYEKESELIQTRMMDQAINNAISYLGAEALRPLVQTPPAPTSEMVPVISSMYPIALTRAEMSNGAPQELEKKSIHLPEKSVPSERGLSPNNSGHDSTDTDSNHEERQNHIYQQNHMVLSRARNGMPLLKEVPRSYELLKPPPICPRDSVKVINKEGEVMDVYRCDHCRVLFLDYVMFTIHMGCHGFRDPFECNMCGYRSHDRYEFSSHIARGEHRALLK
Sequence of IKZF3 protein (Q96SW2 whole entry): as the sequence (Q96SW2 whole entry) above
Sequence of IKZF3 protein (Q16531 whole entry partner): as the sequence (Q16531 whole entry partner) above
Sequence of human Cereblon WT GST-tagged protein (Q96SW2 whole entry): as the sequence (Q96SW2 whole entry) above
Sequence of IKZF1 protein (Q13422 whole entry): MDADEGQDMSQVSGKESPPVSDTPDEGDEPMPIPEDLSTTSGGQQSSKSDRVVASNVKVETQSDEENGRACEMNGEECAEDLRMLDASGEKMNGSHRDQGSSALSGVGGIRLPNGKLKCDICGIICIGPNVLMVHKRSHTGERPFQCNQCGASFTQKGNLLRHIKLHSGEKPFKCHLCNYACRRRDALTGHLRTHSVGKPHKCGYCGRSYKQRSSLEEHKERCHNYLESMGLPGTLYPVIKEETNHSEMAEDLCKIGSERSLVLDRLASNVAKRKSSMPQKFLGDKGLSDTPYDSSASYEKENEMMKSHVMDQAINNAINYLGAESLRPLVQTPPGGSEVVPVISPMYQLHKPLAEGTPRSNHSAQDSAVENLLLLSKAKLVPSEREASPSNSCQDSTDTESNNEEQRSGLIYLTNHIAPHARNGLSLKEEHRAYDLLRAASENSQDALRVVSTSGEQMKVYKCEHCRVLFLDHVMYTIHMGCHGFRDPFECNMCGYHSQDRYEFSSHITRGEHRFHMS
Sequence of IKZF1 protein (Q96SW2 whole entry): as the sequence (Q96SW2 whole entry) above
Sequence of IKZF1 protein (Q16531 whole entry partner): as the sequence (Q16531 whole entry partner) above

Row | Compound | residual substrate protein level, IKZF3 (IKZF3 protein) | residual substrate protein level, IKZF1 (IKZF1 protein) | IC50 [1] | residual substrate protein level, GSPT1 (GSPT1 protein) | concentration at which significant degradation effects on IKZF3 protein are exhibited (FIG. 1) (IKZF3 protein; [2]) | concentration at which significant degradation effects on IKZF1 protein are exhibited (FIG. 1) (IKZF1 protein; [2]) | concentration at which significant degradation effects on GSPT1 protein are exhibited (FIG. 1) (GSPT1 protein; [2])
1 | CC1(C)CCC(CN2CC3CCC(C2)N3Cc2ccc3c(c2F)CN(C2CCC(=O)NC2=O)C3=O)=C(c2ccc(Cl)cc2)C1 (stereo not drawn) [GT-03890, 3-(5-((3-((4′-chloro-5,5-dimethyl-3,4,5,6-tetrahydro-[1,1′-biphenyl]-2-yl)methyl)-3,8-diazabicyclo[3.2.1]octan-8-yl)methyl)-4-fluoro-1-oxoisoindolin-2-yl)piperidine-2,6-dione] | A (A represents a residual substrate protein level of <50%) | B (B represents a residual substrate protein level of >50%) | 510 nM | A (A represents a residual substrate protein level of <50%) |  |  | 
2 | CC1(C)CCC(CN2C[C@@H]3C[C@H]2CN3Cc2ccc3c(c2)CN(C2CCC(=O)NC2=O)C3=O)=C(c2ccc(Cl)cc2)C1 (stereo partly drawn) [GT-03997, 3-(5-(((1S,4S)-5-((4′-chloro-5,5-dimethyl-3,4,5,6-tetrahydro-[1,1′-biphenyl]-2-yl)methyl)-2,5-diazabicyclo[2.2.1]heptan-2-yl)methyl)-1-oxoisoindolin-2-yl)piperidine-2,6-dione] | A (A represents a residual substrate protein level of <50%) | A (A represents a residual substrate protein level of <50%) | 770 nM | B (B represents a residual substrate protein level of >50%) |  |  | 
3 | CC1(C)CCC(CN2CC3CCC2CN3Cc2ccc3c(c2)CN(C2CCC(=O)NC2=O)C3=O)=C(c2ccc(Cl)cc2)C1 (stereo not drawn) [GT-04167, 3-(5-((5-((4′-chloro-5,5-dimethyl-3,4,5,6-tetrahydro-[1,1′-biphenyl]-2-yl)methyl)-2,5-diazabicyclo[2.2.2]octan-2-yl)methyl)-1-oxoisoindolin-2-yl)piperidine-2,6-dione] | B (B represents a residual substrate protein level of >50%) | B (B represents a residual substrate protein level of >50%) | 660 nM | B (B represents a residual substrate protein level of >50%) |  |  | 
4 | CC1(C)CCC(CN2CC3CCC2CN3Cc2ccc3c(c2F)CN(C2CCC(=O)NC2=O)C3=O)=C(c2ccc(Cl)cc2)C1 (stereo not drawn) [GT-04168, 3-(5-((5-((4′-chloro-5,5-dimethyl-3,4,5,6-tetrahydro-[1,1′-biphenyl]-2-yl)methyl)-2,5-diazabicyclo[2.2.2]octan-2-yl)methyl)-4-fluoro-1-oxoisoindolin-2-yl)piperidine-2,6-dione] | B (B represents a residual substrate protein level of >50%) | B (B represents a residual substrate protein level of >50%) | 550 nM | A (A represents a residual substrate protein level of <50%) |  |  | 
5 | O=C1CCC(N2Cc3cc(CN4CCN(CC5=C(c6ccc(F)cc6)CCCC5)CC4)ccc3C2=O)C(=O)N1 (stereo not drawn) [GT-04193, 3-(5-((4-((4′-fluoro-3,4,5,6-tetrahydro-[1,1′-biphenyl]-2-yl)methyl)piperazin-1-yl)methyl)-1-oxoisoindolin-2-yl)piperidine-2,6-dione] | A (A represents a residual substrate protein level of <50%) | A (A represents a residual substrate protein level of <50%) | 460 nM | A (A represents a residual substrate protein level of <50%) |  |  | 
6 | O=C1CCC(N2Cc3cc(CN4CCN(C(=O)c5ccccc5-c5ccc(F)cc5)CC4)ccc3C2=O)C(=O)N1 (stereo not drawn) [GT-04194, 3-(5-((4-(4′-fluoro-[1,1′-biphenyl]-2-carbonyl)piperazin-1-yl)methyl)-1-oxoisoindolin-2-yl)piperidine-2,6-dione] | A (A represents a residual substrate protein level of <50%) | B (B represents a residual substrate protein level of >50%) | 1160 nM | A (A represents a residual substrate protein level of <50%) | below 30 nM | below 30 nM | below 30 nM
7 | O=C1CCC(N2Cc3cc(CN4CCN(Cc5ccncc5-c5ccc(Cl)cc5)CC4)ccc3C2=O)C(=O)N1 (stereo not drawn) [GT-04275, 3-(5-((4-((3-(4-chlorophenyl)pyridin-4-yl)methyl)piperazin-1-yl)methyl)-1-oxoisoindolin-2-yl)piperidine-2,6-dione] | A (A represents a residual substrate protein level of <50%) | A (A represents a residual substrate protein level of <50%) | 460 nM | A (A represents a residual substrate protein level of <50%) |  |  | 
8 | CC1(C)CCC(CN2CC3CC(C2)N3Cc2ccc3c(c2)C(=O)N(C2CCC(=O)NC2=O)C3=O)=C(c2ccc(Cl)cc2)C1 (stereo not drawn) [GT-05368, 5-((3-((4′-chloro-5,5-dimethyl-3,4,5,6-tetrahydro-[1,1′-biphenyl]-2-yl)methyl)-3,6-diazabicyclo[3.1.1]heptan-6-yl)methyl)-2-(2,6-dioxopiperidin-3-yl)isoindoline-1,3-dione] | A (A represents a residual substrate protein level of <50%) | B (B represents a residual substrate protein level of >50%) | 1800 nM | A (A represents a residual substrate protein level of <50%) |  |  | 
9 | CC1(C)CCC(CN2CCN(Cc3ccc4c(c3)C(=O)N(C3CCC(=O)NC3=O)C4=O)CC2)=C(c2ccc(F)cc2)C1 (stereo not drawn) [GT-05395, 2-(2,6-dioxopiperidin-3-yl)-5-((4-((4′-fluoro-5,5-dimethyl-3,4,5,6-tetrahydro-[1,1′-biphenyl]-2-yl)methyl)piperazin-1-yl)methyl)isoindoline-1,3-dione] | A (A represents a residual substrate protein level of <50%) | B (B represents a residual substrate protein level of >50%) | 1610 nM | A (A represents a residual substrate protein level of <50%) |  |  | 
10 | CC1(C)CCC(CN2CC3CC(C2)N3Cc2ccc3c(c2)CN(C2CCC(=O)NC2=O)C3=O)=C(c2ccc(F)cc2)C1 (stereo not drawn) [GT-05399, 3-(5-((3-((4′-fluoro-5,5-dimethyl-3,4,5,6-tetrahydro-[1,1′-biphenyl]-2-yl)methyl)-3,6-diazabicyclo[3.1.1]heptan-6-yl)methyl)-1-oxoisoindolin-2-yl)piperidine-2,6-dione] | B (B represents a residual substrate protein level of >50%) | B (B represents a residual substrate protein level of >50%) | 430 nM | A (A represents a residual substrate protein level of <50%) |  |  | 
11 | CC1(C)CCC(CN2CC3CCC(C2)N3Cc2ccc3c(c2)CN(C2CCC(=O)NC2=O)C3=O)=C(c2ccc(F)cc2)C1 (stereo not drawn) [GT-05400, 3-(5-((3-((4′-fluoro-5,5-dimethyl-3,4,5,6-tetrahydro-[1,1′-biphenyl]-2-yl)methyl)-3,8-diazabicyclo[3.2.1]octan-8-yl)methyl)-1-oxoisoindolin-2-yl)piperidine-2,6-dione] | B (B represents a residual substrate protein level of >50%) | B (B represents a residual substrate protein level of >50%) | 840 nM | A (A represents a residual substrate protein level of <50%) |  |  | 
12 | CC1(C)CCC(CN2CC3CC2CN3Cc2ccc3c(c2)CN(C2CCC(=O)NC2=O)C3=O)=C(c2ccc(F)cc2)C1 (stereo not drawn) [GT-05401, 3-(5-((5-((4′-fluoro-5,5-dimethyl-3,4,5,6-tetrahydro-[1,1′-biphenyl]-2-yl)methyl)-2,5-diazabicyclo[2.2.1]heptan-2-yl)methyl)-1-oxoisoindolin-2-yl)piperidine-2,6-dione] | A (A represents a residual substrate protein level of <50%) | B (B represents a residual substrate protein level of >50%) | 590 nM | B (B represents a residual substrate protein level of >50%) |  |  | 

Source: patent US20260028326A1, “COMPOUND BASED ON ISOINDOLINE-SUBSTITUTED GLUTARIMIDE BACKBONE AND USE THEREOF” (GLUETACS THERAPEUTICS (SHANGHAI) CO., LTD., priority 2022, published 2026)
